# Data taken from patent US20240425519A1, “NOVEL SPIROCYCLIC COMPOUNDS AS KLHDC2 LIGANDS” (University of Washington, priority 2021, published 2024).
# Biological target: KLHDC2 (Homo sapiens (Human), UniProt Q9Y2U9)
# Assay: AlphaScreen competition assay for ligand binding to KLHDC2 (GST-KLHDC2 vs biotinylated 12 aa SelK degron peptide)
# Conditions: formula (II) compounds; 0.12 nM GST-KLHDC2, 1.7 nM biotinylated 12 aa SelK peptide; triplicate; read-out: KLHDC2 binding activities IC50
# Text: The following is a description of an assay for evaluating ligand binding to KLHDC2.
# Amplified Luminescence Proximity Homogenous Assay (AlphaScreen) was used to monitor protein-protein interaction of two tagged components that are immobilized on beads. One component was GST-KLHDC2 (E3) and the other one was biotinylated-SelK peptide with a length of 12 amino acids (Substrate peptide). When the two components bind, they bring the Alpha beads in close proximity to each other that results in a luminescent signal.
# AlphaScreen assays for determining and measuring protein-protein interactions were performed using EnSpire reader (PerkinElmer). GST-tagged KLHDC2 was attached to anti-GST AlphaScreen acceptor beads. Synthetic biotinylated 12 aa SelK degron peptide (Bio-Synthesis, Inc.) was immobilized to streptavidin-coated AlphaScreen donor beads. The donor and acceptor beads were brought into proximity by the interactions between the SelK peptide and KLHDC2. Excitation of the donor beads by a laser beam of 680 nm promotes the formation of singlet oxygen. When an acceptor bead is in close proximity, the singlet oxygen reacts with thioxene derivatives in the acceptor beads and causes the emission of 520-620 nm photons, which are detected as the binding signal. If the beads are not in close proximity to each other, the oxygen will return to its ground state and the acceptor beads will not emit light. Competition assays were performed in the presence of representative binding compounds, which were titrated at various concentrations.
# The experiments were conducted with 0.12 nM of GST-KLHDC2 and 1.7 nM biotinylated 12 aa SelK peptide in the presence of 5 μg/ml donor and acceptor beads in a buffer of 25 mM HEPES, pH 7.5, 100 mM NaCl, 1 mM TCEP, 0.1% Tween-20, and 0.05 mg/ml Bovine Serum Albumin. The concentrations of the compounds used in competition assays ranged from 0.1 nM to 25 mM. The experiments were done in triplicate. IC50 values were determined using non-linear curve fitting of the dose response curves generated with Prism 4 (GraphPad).
# Sequence of KLHDC2 (Q9Y2U9 whole entry): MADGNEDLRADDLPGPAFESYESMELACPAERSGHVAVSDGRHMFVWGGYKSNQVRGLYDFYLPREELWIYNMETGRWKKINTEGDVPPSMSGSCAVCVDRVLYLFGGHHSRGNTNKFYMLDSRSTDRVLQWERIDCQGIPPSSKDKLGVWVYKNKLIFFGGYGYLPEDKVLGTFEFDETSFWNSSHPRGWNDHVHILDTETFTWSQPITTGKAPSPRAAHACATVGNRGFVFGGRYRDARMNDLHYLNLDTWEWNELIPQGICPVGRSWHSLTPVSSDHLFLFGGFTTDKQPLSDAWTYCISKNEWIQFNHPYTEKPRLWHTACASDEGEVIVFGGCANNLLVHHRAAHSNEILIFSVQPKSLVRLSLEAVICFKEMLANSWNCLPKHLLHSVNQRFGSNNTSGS
row,Structure (SMILES),IC50 [µM]
1,"CN1CCN(C(=O)C2CC2c2ccccc2)CC12CCC(=O)N(CC(=O)O)CC2 (stereo not shown) [AC1032, 2-(1-methyl-10-oxo-4-(2-phenylcyclopropane-1-carbonyl)-1,4,9-triaza-spiro[5.6]dodecan-9-yl)-acetic acid]",32
2,"CC(Cc1ccccc1)C(=O)N1CCN(C)C2(CCC(=O)N(CC(=O)O)CC2)C1 (stereo not shown) [AC1033, 2-(1-methyl-4-(2-methyl-3-phenylpropanoyl)-10-oxo-1,4,9-triazaspiro[5.6]-dodecan-9-yl)acetic acid]",56.4
3,"CN1CCN(C(=O)C2CC(F)(F)C2)CC12CCC(=O)N(CC(=O)O)CC2 (stereo not shown) [AC1034, 2-(4-(3,3-difluorocyclo-butane-1-carbonyl)-1-methyl-10-oxo-1,4,9-triazaspiro[5.6]dodecan-9-yl)acetic acid]",295
4,"CN1CCN(C(=O)C2(c3ccc(F)cc3)CC2)CC12CCC(=O)N(CC(=O)O)CC2 (stereo not shown) [AC1045, 2-(4-(1-(4-fluorophenyl)-cyclopropane-1-carbon-yl)-1-methyl-10-oxo-1,4,9-triazaspiro[5.6]-dodecan-9-yl)acetic acid]",348
5,"CN1CCN(C(=O)C(C)(C)Oc2ccccc2)CC12CCC(=O)N(CC(=O)O)CC2 (stereo not shown) [AC1046, 2-(1-methyl-4-(2-methyl-2-phenoxypropanoyl)-10-oxo-1,4,9-triazaspiro[5.6]-dodecan-9-yl)acetic acid]",202
6,"CN1CCN(C(=O)[C@H]2C[C@@H](NC(=O)OC(C)(C)C)C2)CC12CCC(=O)N(CC(=O)O)CC2 (stereo partly drawn) [AC1047, 2-(4-((1,3-trans)-3-((tert-butoxycarbonyl)amino)-cyclobutane-1-carbonyl)-1-methyl-10-oxo-1,4,9-triazaspiro[5.6]dodecan-9-yl)acetic acid]",493
7,"CN1CCN(C(=O)C2(O)CCCC2)CC12CCC(=O)N(CC(=O)O)CC2 (stereo not shown) [AC1048, 2-(4-(1-hydroxycyclopen-tane-1-carbonyl)-1-meth-yl-10-oxo-1,4,9-triaza-spiro[5.6]dodecan-9-yl)-acetic acid]",116
8,"CN1CCN(C(=O)NC2CCC2)CC12CCC(=O)N(CC(=O)O)CC2 (stereo not shown) [AC1049, 2-(4-(cyclobutylcarbam-oyl)-1-methyl-10-oxo-1,4,9-triazaspiro[5.6]-dodecan-9-yl)acetic acid]",91.7
9,"CN1CCN(C(=O)[C@@H]2CCN2C(=O)OC(C)(C)C)CC12CCC(=O)N(CC(=O)O)CC2 (stereo partly drawn) [AC1065, 2-(4-((S)-1-(tert-butoxy-carbonyl)azetidine-2-carbonyl)-1-methyl-10-oxo-1,4,9-triazaspiro[5.6]-dodecan-9-yl)acetic acid]",496

# Other lines, results leading:
row,IC50 [µM],Structure (SMILES)
1,33.6,"CN1CCN(C(=O)Nc2ccccc2)CC12CCC(=O)N(CC(=O)O)CC2 (stereo not shown) [AC1050, 2-(1-methyl-10-oxo-4-(phenylcarbamoyl)-1,4,9-triazaspiro[5.6]dodecan-9-yl)acetic acid]"
2,45.9,"CN1CCN(C(=O)NCc2ccccc2)CC12CCC(=O)N(CC(=O)O)CC2 (stereo not shown) [AC1051, 2-(4-(benzylcarbamoyl)-1-methyl-10-oxo-1,4,9-triazaspiro[5.6]dodecan-9-yl)acetic acid]"
3,100,"CN1CCN(C(=O)C2CC2)CC12CCC(=O)N(CC(=O)O)CC2 (stereo not shown) [AC1052, 2-(4-(cyclopropanecar-bonyl)-1-methyl-10-oxo-1,4,9-triazaspiro[5.6]-dodecan-9-yl)acetic acid]"
4,19.8,"CC(C(=O)N1CCN(C)C2(CCC(=O)N(CC(=O)O)CC2)C1)c1ccc(O)cc1 (stereo not shown) [AC1062, 2-(4-(2-(4-hydroxyphen-yl)propanoyl)-1-methyl-10-oxo-1,4,9-triazaspiro-[5.6]dodecan-9-yl)acetic acid]"
5,131,"COC(C)(C(=O)N1CCN(C)C2(CCC(=O)N(CC(=O)O)CC2)C1)c1ccccc1 (stereo not shown) [AC1063, 2-(4-(2-methoxy-2-phen-ylpropanoyl)-1-methyl-10-oxo-1,4,9-triazaspiro-[5.6]dodecan-9-yl)acetic acid]"
6,148,"CN1CCN(C(=O)c2cnn(-c3ccccc3)c2)CC12CCC(=O)N(CC(=O)O)CC2 (stereo not shown) [AC1064, 2-(1-methyl-10-oxo-4-(1-phenyl-1H-pyrazole-4-carbonyl)-1,4,9-triaza-spiro[5.6]dodecan-9-yl)-acetic acid]"
7,65.9,"CN1CCN(C(=O)C2CC(=O)N(Cc3ccccc3)C2)CC12CCC(=O)N(CC(=O)O)CC2 (stereo not shown) [AC1066, 2-(4-(1-benzyl-5-oxo-pyrrolidine-3-carbonyl)-1-methyl-10-oxo-1,4,9-triazaspiro[5.6]dodecan-9-yl)acetic acid]"
8,191,"CC(=O)N1CCC(C(=O)N2CCN(C)C3(CCC(=O)N(CC(=O)O)CC3)C2)CC1 (stereo not shown) [AC1068, 2-(4-(1-acetylpiperidine-4-carbonyl)-1-methyl-10-oxo-1,4,9-triazaspiro-[5.6]dodecan-9-yl)acetic acid]"
9,4.6,"CN1CCN(C(=O)C2CN(Cc3ccccn3)C2)CC12CCC(=O)N(CC(=O)O)CC2 (stereo not shown) [AC1069, 2-(1-methyl-10-oxo-4-(1-(pyridin-2-ylmethyl)azeti-dine-3-carbonyl)-1,4,9-triazaspiro[5.6]dodecan-9-yl)acetic acid]"
10,45.4,"CN1CCN(C(=O)[C@H]2CCCN2C(=O)c2ccccc2)CC12CCC(=O)N(CC(=O)O)CC2 (stereo partly drawn) [AC1071, 2-(4-(benzoyl-D-prolyl)-1-methyl-10-oxo-1,4,9-triazaspiro[5.6]dodecan-9-yl)acetic acid]"
11,12.5,"CC(=O)N1CCC[C@@H]1C(=O)N1CCN(C)C2(CCC(=O)N(CC(=O)O)CC2)C1 (stereo partly drawn) [AC1072, 2-(4-(acetyl-D-prolyl)-1-methyl-10-oxo-1,4,9-triazaspiro[5.6]dodecan-9-yl)acetic acid]"

# Same assay, conditions: formula (III) compounds; 0.12 nM GST-KLHDC2, 1.7 nM biotinylated 12 aa SelK peptide; triplicate; read-out: KLHDC2 binding activities IC50
row,IC50 [µM],Structure (SMILES)
1,445,"CC(=O)N1CCc2nc(N3CCN(C)C4(CCC(=O)N(CC(=O)O)CC4)C3)ncc2C1 (stereo not shown) [AC1030, 2-(4-(6-acetyl-5,6,7,8-tetra-hydropyrido[4,3-d]pyrimidin-2-yl)-1-methyl-10-oxo-1,4,9-triazaspiro[5.6]dodecan-9-yl)-acetic acid]"
2,389,"Cc1nc(N)nc(N2CCN(C)C3(CCC(=O)N(CC(=O)O)CC3)C2)c1Cl (stereo not shown) [AC1031, 2-(4-(2-amino-5-chloro-6-methylpyrimidin-4-yl)-1-methyl-10-oxo-1,4,9-triaza-spiro[5.6]dodecan-9-yl)acetic acid]"
3,123,"CN1CCN(c2nccc(C(=O)O)n2)CC12CCC(=O)N(CC(=O)O)CC2 (stereo not shown) [AC1035, 2-(9-(carboxymethyl)-1-meth-yl-10-oxo-1,4,9-triazaspiro-[5.6]dodecan-4-yl)pyrimidine-4-carboxylic acid]"

# Same assay, conditions: formula (IV) compounds; 0.12 nM GST-KLHDC2, 1.7 nM biotinylated 12 aa SelK peptide; triplicate; read-out: KLHDC2 binding activities IC50
row,IC50 [µM],Structure (SMILES)
1,50,"CC(C(=O)N1CCCC2(CCN(CC(=O)O)C(=O)CO2)C1)c1ccccc1 (stereo not shown) [AC890, 2-(9-oxo-2-(2-phenylpropano-yl)-7-oxa-2,10-diazaspiro[5.6]-dodecan-10-yl)acetic acid]"
2,40.1,"O=C(O)CN1CCC2(CCCN(C(=O)C3CCCC3)C2)OCC1=O (stereo not shown) [AC903, 2-(2-(cyclopentanecarbonyl)-9-oxo-7-oxa-2,10-diazaspiro-[5.6]dodecan-10-yl)acetic acid]"
3,51,"O=C(O)CN1CCC2(CCCN(C(=O)C3CCC3)C2)OCC1=O (stereo not shown) [AC904, 2-(2-(cyclobutanecarbonyl)-9-oxo-7-oxa-2,10-diazaspiro-[5.6]dodecan-10-yl)acetic acid]"
4,47.5,"O=C(O)CN1CCC2(CCCN(c3ccnc(N4CCC(O)C4)n3)C2)OCC1=O (stereo not shown) [AC935, 2-(2-(2-(3-hydroxypyrrolidin-1-yl)pyrimidin-4-yl)-9-oxo-7-oxa-2,10-diazaspiro[5.6]-dodecan-10-yl)acetic acid]"
5,1390,"Cc1nccc(N2CCCC3(CCN(CC(=O)O)C(=O)CO3)C2)n1 (stereo not shown) [AC947, 2-(2-(2-methylpyrimidin-4-yl)-9-oxo-7-oxa-2,10-diazaspiro-[5.6]dodecan-10-yl)acetic acid]"
6,22.1,"C[C@H](C(=O)N1CCC[C@]2(CCN(CC(=O)O)C(=O)CO2)C1)c1ccccc1 [AC0978, 2-((S)-9-oxo-2-((S)-2-phenyl-propanoyl)-7-oxa-2,10-diaza-spiro[5.6]dodecan-10-yl)acetic acid]"
7,63.7,"C[C@H](C(=O)N1CCC[C@@]2(CCN(CC(=O)O)C(=O)CO2)C1)c1ccccc1 [AC0979, 2-((R)-9-oxo-2-((S)-2-phenyl-propanoyl)-7-oxa-2,10-diaza-spiro[5.6]dodecan-10-yl)acetic acid]"
8,39.6,"C[C@@H](C(=O)N1CCCC2(CCN(CC(=O)O)C(=O)CO2)C1)c1ccccc1 (stereo partly drawn) [AC1028, 2-(9-oxo-2-((R)-2-phenylpro-panoyl)-7-oxa-2,10-diaza-spiro[5.6]dodecan-10-yl)acetic acid]"
